Ends that are not written are not given here.
System: Danio rerio embryos
Assay: Zebrafish embryo toxicity (OECD TG 236)
Assay type: in vivo
Settings: for LC50 (zebrafish embryos): exposure to 120 hpf, 28 °C, 10 embryos/well, triplicate, LL.2 model, mean ± SD, n = 3
Protocol: Embryos were exposed to six different increasing concentrations of each peptide for 5 consecutive days (120 hfp) and examined for survival and signs of toxicity, following toxicological endpoints (Table S1).
The toxicity of synthetic peptide variants was assessed in vivo using Danio rerio embryos, in accordance with OECD Test Guideline 236 (Fish Embryo Acute Toxicity Test) and the European Directive 2010/63/EU on the protection of animals used for scientific purposes, according to Aleksic et al.. All procedures were conducted at the Institute of Molecular Genetics and Genetic Engineering, University of Belgrade.
Wild-type adult zebrafish were maintained under standard laboratory conditions (28 °C; 14:10 h light–dark cycle). Embryos were obtained via pairwise mating and collected within 1 h post-fertilization (hpf). At 5 hpf, the embryos were randomly distributed into 24-well plates (10 embryos/well, 1 mL embryo medium per well) containing embryo water (0.2 mg/mL Instant Ocean® salts in distilled water). Peptides were tested at five concentrations (e.g., 1.56–25 µg/mL) in triplicate. Peptide solvent was used as a negative control. The plates were incubated at 28 °C without media replacement.
Embryonic development was monitored using an inverted microscope (Zeiss Stemi 508; Carl Zeiss Microscopy GmbH, Jena, Germany). Lethal endpoints and sublethal malformations were scored according to OECD guidelines (Table S1). At 120 hpf, the embryos were anesthetized using 0.1% tricaine, photographed, and euthanized via freezing at −20 °C for 24 h.
LC50 values were estimated using the log–logistic binomial model (LL.2) from the drc package in R.
Dose–response curves and LC50 values were estimated using the log–logistic binomial model (LL.2) from the drc package in R [79] (version 2025.05.0). Mortality data were modeled as proportions of dead individuals relative to total individuals tested, and 95% confidence intervals for LC50 were calculated using the delta method.

Sequence: MWARILGTVAKYGPKAVSWAWQHKWELINMGDLAFRYIQRIWG [Peptide G3A]
- concentration at which yolk sac retention was observed (120 hpf): 6250 ng/mL
- LC50 (zebrafish embryos): 5.69 µg/mL

Sequence: MWGRILATVAKYGPKAVSWAWQHKWELINMGDLAFRYIQRIWG [Peptide G7A]
- concentration at which yolk sac retention was observed (120 hpf): 3130 ng/mL
- concentration inducing lethal egg coagulation (120 hpf): 6250 ng/mL
- LC50 (zebrafish embryos): 2.98 µg/mL

Sequence: MWGRILGTVAKYAPKAVSWAWQHKWELINMGDLAFRYIQRIWG [Peptide G13A]
- concentration at which yolk sac retention was observed (120 hpf): 1560 ng/mL
- concentration causing general growth delay (120 hpf): 1560 ng/mL
- concentration causing hemorrhaging (120 hpf): 1560 ng/mL
- concentration causing pericardial edema (120 hpf): 1560 ng/mL
- concentration inducing lethal egg coagulation (120 hpf): 1560 ng/mL
- embryo mortality, in words (120 h dose–response): nearly complete mortality at concentrations ≥3.1 µg/mL

— paper PMC12348470, “Amino Acid Substitutions in Bacteriocin Lactolisterin BU Reveal Functional Domains Involved in Biological Activity Against Staphylococcus aureus” (Molecules, 2025)
